Legend:
Assay in all cases: Nitroreductase detection on Columbia agar, colonies read under UV
Details in all cases: Table 4; 100 mg/l in Columbia agar, 24 h 37° C., UV 360-365 nm
[1] = tested on: Morganella morganii 462403 (wild); format: cell-based; set-up: key to Intensity of fluorescence, Morganella morganii 462403 / F: fluorescence (intensity), Morganella morganii 462403 (wild) / Intensity of the fluorescence, Morganella morganii 462403 (wild): − = no fluorescence detected; +/− = weak fluorescence; + = medium fluorescence; ++ = strong fluorescence
Method: (§1) A mass of 40 mg of each substrate was dissolved in 4 ml of dimethylformamide (DMF). This solution was entirely taken up in 400 ml of Columbia agar autoclaved beforehand and kept molten at 50° C. The final concentration for each substrate was 100 mg/l.
(§2) Each of the media was distributed into Petri dishes 90 mm in diameter, in a proportion of 20 ml per dish.
(§3) 18 microorganism strains derived from collections and belonging to various species of bacteria and of yeasts were inoculated onto these media by semi-quantitative isolation of 10 μl of a suspension at 0.5 McFarland diluted to 1/20. The media were incubated for 24 hours at 37° C., then the colonies formed were examined visually under UV illumination at 360-365 nm.

[2] = tested on: Acinetobacter baumanii ATCC 19606; format: cell-based; set-up: key to Intensity of fluorescence, Acinetobacter baumanii ATCC 19606 / Intensity of the fluorescence, Acinetobacter baumanii ATCC 19606: − = no fluorescence detected; +/− = weak fluorescence; + = medium fluorescence; ++ = strong fluorescence
Method: as §1, §2, §3

[3] = tested on: Citrobacter freundii 46262 (wild); format: cell-based; set-up: key: − = no fluorescence detected; +/− = weak fluorescence; + = medium fluorescence; ++ = strong fluorescence
Method: as §1, §2, §3

[4] = tested on: Streptococcus pyogenes NCTC 8306; format: cell-based; set-up: key: − = no fluorescence detected; +/− = weak fluorescence; + = medium fluorescence; ++ = strong fluorescence
Method: as §1, §2, §3

[5] = tested on: Staphylococcus epidermidis NCTC 11047; format: cell-based; set-up: key: − = no fluorescence detected; +/− = weak fluorescence; + = medium fluorescence; ++ = strong fluorescence
Method: as §1, §2, §3

[6] = tested on: Candida albicans ATCC 90028; format: cell-based; set-up: key: − = no fluorescence detected; +/− = weak fluorescence; + = medium fluorescence; ++ = strong fluorescence
Method: as §1, §2, §3

[7] = tested on: Providencia rettgeri NCTC 7475; format: cell-based; set-up: key: − = no fluorescence detected; +/− = weak fluorescence; + = medium fluorescence; ++ = strong fluorescence
Method: as §1, §2, §3

[8] = tested on: Yersinia enterocolitica NCTC 11176; format: cell-based; set-up: key: − = no fluorescence detected; +/− = weak fluorescence; + = medium fluorescence; ++ = strong fluorescence
Method: as §1, §2, §3

[9] = tested on: Enterobacter cloacae NCTC 11936; format: cell-based; set-up: key: − = no fluorescence detected; +/− = weak fluorescence; + = medium fluorescence; ++ = strong fluorescence
Method: as §1, §2, §3

[10] = tested on: Enterococcus faecium NCTC 7171; format: cell-based; set-up: key: − = no fluorescence detected; +/− = weak fluorescence; + = medium fluorescence; ++ = strong fluorescence
Method: as §1, §2, §3

[11] = tested on: Pseudomonas aeruginosa NCTC 10662; format: cell-based; set-up: key: − = no fluorescence detected; +/− = weak fluorescence; + = medium fluorescence; ++ = strong fluorescence
Method: as §1, §2, §3

[12] = tested on: Listeria monocytogenes NCTC 11994; format: cell-based; set-up: key: − = no fluorescence detected; +/− = weak fluorescence; + = medium fluorescence; ++ = strong fluorescence
Method: as §1, §2, §3

[13] = tested on: Escherichia coli NCTC 10418; format: cell-based; set-up: key: − = no fluorescence detected; +/− = weak fluorescence; + = medium fluorescence; ++ = strong fluorescence
Method: as §1, §2, §3

[14] = tested on: Enterococcus faecalis NCTC 775; format: cell-based; set-up: key: − = no fluorescence detected; +/− = weak fluorescence; + = medium fluorescence; ++ = strong fluorescence
Method: as §1, §2, §3

[15] = tested on: Serratia marcescens NCTC 10211; format: cell-based; set-up: key: − = no fluorescence detected; +/− = weak fluorescence; + = medium fluorescence; ++ = strong fluorescence
Method: as §1, §2, §3

[16] = tested on: Staphylococcus aureus NCTC 6571; format: cell-based; set-up: key: − = no fluorescence detected; +/− = weak fluorescence; + = medium fluorescence; ++ = strong fluorescence
Method: as §1, §2, §3

[17] = tested on: Bacillus subtilis NCTC 9372; format: cell-based; set-up: key: − = no fluorescence detected; +/− = weak fluorescence; + = medium fluorescence; ++ = strong fluorescence
Method: as §1, §2, §3

MRSA NCTC 11939 = format: cell-based, Staphylococcus aureus; set-up: key: − = no fluorescence detected; +/− = weak fluorescence; + = medium fluorescence; ++ = strong fluorescence
Method: as §1, §2, §3

[18] = tested on: Candida glabrata NCPF 3943; format: cell-based; set-up: key to Intensity of fluorescence, Candida glabrata NCPF3943 / F: fluorescence (intensity), Candida glabrata NCPF 3943 / Intensity of the fluorescence, Candida glabrata NCPF 3943: − = no fluorescence detected; +/− = weak fluorescence; + = medium fluorescence; ++ = strong fluorescence
Method: as §1, §2, §3

[19] = tested on: Salmonella typhimurium NCTC 74; format: cell-based; set-up: key to Intensity of fluorescence, Salmonella typhimurium NCTC 74 / F: fluorescence (intensity), Salmonella typhimurium NCTC 74 / Intensity of the fluorescence, Salmonella typhimurium NCTC 74: − = no fluorescence detected; +/− = weak fluorescence; + = medium fluorescence; ++ = strong fluorescence
Method: as §1, §2, §3

Question: For `CN1CCN(c2ccc([N+](=O)[O-])c(-c3nc4ccccc4s3)c2)CC1` [Substrate 23], which “Intensity of the fluorescence, Morganella morganii 462403 (wild)” value [1] is on record?
Answer: +

Question: And the “Intensity of the fluorescence, Acinetobacter baumanii ATCC 19606” value [2]?
Answer: −

Question: What about the “Intensity of the fluorescence, Citrobacter freundii 46262 (wild)” value [3] of the same compound?
Answer: +

Question: What about the “Intensity of the fluorescence, Streptococcus pyogenes NCTC 8306” value [4] of the same compound?
Answer: −

Question: And the “Intensity of the fluorescence, Staphylococcus epidermidis NCTC 11047” value [5]?
Answer: −

Question: What about the “Intensity of the fluorescence, Candida albicans ATCC 90028” value [6] of the same compound?
Answer: −

Question: What about the “Intensity of the fluorescence, Providencia rettgeri NCTC 7475” value [7] of the same compound?
Answer: +

Question: And the “Intensity of the fluorescence, Yersinia enterocolitica NCTC 11176” value [8]?
Answer: −

Question: And the “Intensity of the fluorescence, Enterobacter cloacae NCTC 11936” value [9]?
Answer: +

Question: What about the “Intensity of the fluorescence, Enterococcus faecium NCTC 7171” value [10] of the same compound?
Answer: −

Question: What about the “Intensity of the fluorescence, Pseudomonas aeruginosa NCTC 10662” value [11] of the same compound?
Answer: +

Question: What about the “Intensity of the fluorescence, Listeria monocytogenes NCTC 11994” value [12] of the same compound?
Answer: −

Question: And the “Intensity of the fluorescence, Escherichia coli NCTC 10418” value [13]?
Answer: −

Question: And the “Intensity of the fluorescence, Enterococcus faecails NCTC 775” value [14]?
Answer: −

Question: What about the “Intensity of the fluorescence, Serratia marcescens NCTC 10211” value [15] of the same compound?
Answer: +

Question: And the “Intensity of the fluorescence, Staphylococcus aureus NCTC 6571” value [16]?
Answer: V.

Question: And the “Intensity of the fluorescence, Bacillus subtilis NCTC 9372” value [17]?
Answer: −

Question: What about the “Intensity of the fluorescence, MRSA NCTC 11939” value (MRSA NCTC 11939) of the same compound?
Answer: +/−

Question: And the “Intensity of the fluorescence, Candida glabrata NCPF 3943” value [18]?
Answer: −

Question: What about the “Intensity of the fluorescence, Salmonella typhimurium NCTC 74” value [19] of the same compound?
Answer: +
